What was measured:
[1] = body weight / tolerability of treated 4T1 tumor-bearing mice; format: in vivo; conditions: 0.2 mg·kg^−1 i.v. once every 2 days
Experimental: (§1) Figure 2 Loop formation is important for the antitumor activity of VGB3. (A) To investigate the efficacy of VGB3 peptides in vivo 13 days after transplantation of a 4T1 murine MCT into female BALB/c mice (the tumor volume ~150 mm^3), the treatment groups received 0.2 mg·kg^−1 (once every 2 days, i.v.) of either the C-VGB3 or L-VGB3 and the control group received PBS for 20 days. Error bars denote ± SEM. n = 6; **** p < 0.0001, ns = not significant; two-way ANOVA. (B) Investigation of C-VGB3 and L-VGB3 effects on mice weight. […] (C,D) Immunohistochemical (IHC) analyses of CD31 and Ki67 for the C-VGB3-, L-VGB3- and PBS-treated tumors. For IHC staining, the sections of tumor tissues were incubated with the primary mouse monoclonal antibodies for CD31 (1:2000 (v/v)) and Ki67 (5 µg·mL^−1). […] Photographs were taken at 40× magnification. Error bars denote ± SEM. n = 3; * 0.02 ≤ p ≤ 0.04, ns = not significant; one-way ANOVA.
(§2) The antitumor efficacy of the peptides was investigated as described previously. Thirteen days after implanting, tumor (~150 mm^3)-bearing mice were grouped randomly into control and treated animals (6/group). From day 13 to day 33, the treatment group received cyclic or linear VGB3 (0.2 mg·kg^−1), whereas the control group received an equal volume of PBS (i.v., once every two days). The volume of tumors was calculated as 0.52 × length × width^2. In addition, changes in the weight of animals were recorded every 2 days.

Ki67-positive cells = assay: Ki67 immunohistochemistry of 4T1 tumors (proliferation); format: in vivo, murine; conditions: 0.2 mg·kg^−1 i.v.; n = 3
Experimental: as §1
For immunohistochemistry staining, deparaffinized tumor sections were incubated overnight at 4 °C with mouse monoclonal primary anti-Ki67 (5 µg·mL^−1) or anti-CD31 (1:2000 (v/v)). The antigens were detected using 3,3-diaminobenzidine. All images were captured and analyzed with an Olympus BX51 microscope (Olympus America, New York, NY, USA).

[2] = tested on: 4T1 murine MCT in female BALB/c mice; format: in vivo; conditions: 0.2 mg·kg^−1 i.v. once every 2 days, day 13 to 33; n = 6
Experimental: as §1
as §2, with “From day 13 to day 33, the treatment group received cyclic or linear VGB3 (0.2 mg·kg^−1), whereas the control group received an equal volume of PBS (i.v., once every two days).” left out

[3] = tested on: extracellular domain of VEGFR2 (KDR); assay: ELISA-based displacement (competition binding) of biotinylated VEGF from VEGFR2
Experimental: Figure 3 The binding affinity of C-VGB3 to VEGFR2. (A) ELISA-based displacement assay. The gradient concentrations of C-VGB3 (0, 0.316, 1, 3.16, 10, 31.6, 100, and 316 μM) were used in the assay. […] Error bars denote ± SEM. n = 3; ** p = 0.001, *** p = 0.0001, **** p < 0.0001, ns = not significant; one-way ANOVA. (B) A three-dimensional (produced by UCSF chimera software version 1.12) and a two-dimensional representation (produced by LigPlot software) of interactions in the C-VGB3/VEGFR2 complex is shown on the left and the right, respectively.
A displacement assay was conducted as reported previously with some modifications, including using 20 ng of the VEGFR2 extracellular domains (R&D Systems, Minneapolis, MN, USA). Peptide compounds were assayed three times per experiment.
Figure S6. Evaluating the binding capability of L-VGB3 to VEGFR2
(A) ELISA-based displacement assay. The gradient concentrations of L-VGB3 (3.16, 10, […]
to the extracellular domain of VEGFR2 at applied concentrations. (B) Two-dimensional representation of interactions (produced by LigPlot software) in L-VGB3/VEGFR2 […]

HUVE and 4T1 cell lines = assay: MTT assay, HUVE and 4T1 cell lines (linear vs cyclic peptide, not separated); format: cell-based; conditions: cell line not specified at the place; 0–1.81 μM, 24 and 48 h
Experimental: The effects of C-VGB3 and L-VGB3 on the cell survival of HUVE and 4T1 cell lines were investigated using the MTT assay, as previously described, with some modifications. Cells were incubated with (0–1.81 μM) or without the peptide in the presence (20 ng·mL^−1) or in the absence of VEGF (Sigma-Aldrich, St. Louis, MO, USA). After 24 and 48 h of incubation at 37 °C, the absorbance at 570 nm was recorded using an ELISA plate reader (Space Fax 2100, Awareness, Palm City, FL, USA). The tests were repeated three times.

[4] = molecular target: VEGFR2 extracellular domain (UniProt P35968); assay: ELISA; ELISA-based displacement assay as in ref. 51 with modifications; 20 ng VEGFR2 extracellular domain; biotinylated VEGF (btVEGF165) displaced by peptide; C-VGB3 0-316 μM, L-VGB3 up to 3 mM; triplicate
Chain of UniProt P35968 (P35968 20-764): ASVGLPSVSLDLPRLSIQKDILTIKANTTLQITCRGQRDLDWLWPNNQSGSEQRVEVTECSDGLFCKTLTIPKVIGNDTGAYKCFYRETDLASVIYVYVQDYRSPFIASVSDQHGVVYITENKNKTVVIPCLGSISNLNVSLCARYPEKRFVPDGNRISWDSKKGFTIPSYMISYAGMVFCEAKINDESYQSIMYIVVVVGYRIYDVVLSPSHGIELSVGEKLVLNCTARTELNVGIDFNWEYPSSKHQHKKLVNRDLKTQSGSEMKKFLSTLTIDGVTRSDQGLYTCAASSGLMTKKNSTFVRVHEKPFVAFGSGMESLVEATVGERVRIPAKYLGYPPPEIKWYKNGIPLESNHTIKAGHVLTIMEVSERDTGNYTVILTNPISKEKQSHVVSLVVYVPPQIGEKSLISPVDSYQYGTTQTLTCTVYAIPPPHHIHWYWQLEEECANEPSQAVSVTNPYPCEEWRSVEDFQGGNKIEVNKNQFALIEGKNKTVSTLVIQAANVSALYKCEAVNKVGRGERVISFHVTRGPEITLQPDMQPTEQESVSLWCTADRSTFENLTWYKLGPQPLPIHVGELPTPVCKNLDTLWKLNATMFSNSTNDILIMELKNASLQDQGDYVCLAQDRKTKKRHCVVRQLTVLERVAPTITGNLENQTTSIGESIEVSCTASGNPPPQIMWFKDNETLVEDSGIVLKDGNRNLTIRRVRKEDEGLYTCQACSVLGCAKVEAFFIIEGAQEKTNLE

## H-ECRPPDDGLC-OH (cysteine pairing not given here) [L-VGB3, linear structure of VGB3]
[1]; three weeks
  toxicity at this dosage (weight gain): not toxic
[1]; two-way ANOVA
  mice weight vs control groups: no significant differences
Ki67-positive cells
  decrease in Ki67-positive cells, in words: ineffective
[2]
  inhibition of 4T1 MCT (tumor growth), in words: no effect
[3]; 3 mM, competition binding assay
  binding to VEGFR2 extracellular domain: no measurable binding
[3]; 3.16-3160 μM, ELISA-based displacement assay
  binding to VEGFR2 extracellular domain: no binding
HUVE and 4T1 cell lines
  antiproliferative property: abolished

## C-VGB3 (cyclic VGB3) (peptide)
[4]
  percent displacement of btVEGF165 at 100 μM C-VGB3: 58%

From paper PMC10305181, “A VEGFB-Based Peptidomimetic Inhibits VEGFR2-Mediated PI3K/Akt/mTOR and PLCγ/ERK Signaling and Elicits Apoptotic, Antiangiogenic, and Antitumor Activities” (Pharmaceuticals, 2023)
